Reference: patent US20160169896A1, “Methods for Predicting and Treating Bone Metastases in Prostate Cancer Patients” (INSERM (institut NAtional de la Sante et de la Recherche …, priority 2012, published 2016)

System: PC3 cells
Assay: Real-time PCR of factor expression in PC3 cells treated with the ERRα inverse agonist XCT790 versus DMSO
Type: cell-based, human
Details: XCT790 5 10^−7M, 24 hours, compared to DMSO control
Description: PC3 cell line was obtained from the American Type Culture Collection (ATCC, Manassas, Va., USA). PC3 cells are routinely cultured in F12K nutrient mixture and DMEM medium (Gibco/Invitrogen; Carlsbad, Calif., USA) respectively supplemented with 10% (v/v) fetal bovine serum (FBS; Perbio/Thermo scientific; Rockford, Ill., USA) and 1% (v/v) penicillin/streptomycin (Invitrogen; Carlsbad, Calif., USA) at 37° C. in a 5% CO2 incubator.
Human ERRα cDNA (WT) was obtained from mRNA extracted from BO2-FRT cells, by using RT-PCR with specific primers ((NM_004451.3) (Fradet et al, 2011). Amplimers were sequenced for verification. The pcDNA5/ERRα-WT (WT) and empty pcDNA5 (used as control (CT)) constructs were transfected using Transfast (Promega). For clonal selection, cells were cultured for 4 weeks in the presence of puromycin (1 μg/ml PC3) (Invitrogen). XCT790, an inverse agonist of ERRα was tested in vitro on PC3 cells at 5.10^−7M compare to DMSO for 24 h.
Total RNA was extracted with Trizol reagent (Sigma) from PC3 cells, PC3 tumors, MC3T3-E1 cells. Samples of total RNA (2 μg) were reverse-transcribed using random hexamer (Promega) and the first strand synthesis kit of Superscript™ II (Invitrogen). Real-time RT-PCR was performed on a Roche Lightcycler Module (Roche) with primers specific for human and mouse. Real-time RT-PCR was carried out by using (SYBR Green; Qiagen,) on the LightCycler system on (Roche) according to the manufacturer's instructions with an initial step for 10 min at 95° C. followed by 40 cycles of 20 sec at 95° C., 10 sec at Tm (see Tables 1-2) and 10 sec at 72° C. We verified that a single peak was obtained for each product using the Roche software. Amplimers were all normalized to corresponding L32 values. Data analysis was carried out using the comparative Ct method: in real-time each replicate average genes CT was normalized to the average CT of L32 by subtracting the average CT of L32 from each replicate to give the ACT. Results are expressed as Log^-2 ΔΔCT with ΔΔCT equivalent to the ΔCT of the genes in PC3 (clone, XCT), tumors or treated MC3T3-E1 subtracting to the ACT of the endogenous control (empty vectors control for clones or tumors, DMSO for the XCT experiment and empty vectors control conditioned media treated MC3T3-E1 respectively).
To confirm the regulation of the factors identified in PC3 over-expressing ERRα, we treat PC3 cells by the inverse agonist XCT790 (5 10^−7M) for 24 hours. XCT790 is able to block the interaction between ERRα and his co-activators PGC1a and b that will have as a consequence the inhibition of ERRα transcriptional activity.

COc1cc(/C=C(\C#N)C(=O)Nc2nnc(C(F)(F)F)s2)ccc1OCc1ccc(C(F)(F)F)cc1C(F)(F)F [XCT790, (2E)-3-(4-{[2,4-bis(trifluoromethyl)benzyl]oxy}-3-methoxyphenyl)-2-cyano-N-[5-(trifluoromethyl)-1,3,4-thiadiazol-2-yl]acrylamide] was tested, and the “CK (cathepsin K) expression (real-time PCR)” value was “no CK were found statistically down-regulated”, the “ET1 expression (real-time PCR)” value was “identified as direct ERRα/PGC1 target genes” and the “MCP1 expression (real-time PCR)” value was “statistically down-regulated”. For the same compound, the “OPG expression (real-time PCR)” value was “statistically down-regulated”, the “Runx2 expression (real-time PCR)” value was “statistically down-regulated” and the “Wnt3a expression (real-time PCR)” value was “identified as direct ERRα/PGC1 target genes”. The “Wnt5a expression (real-time PCR)” value was “identified as direct ERRα/PGC1 target genes”.
